Our source for the RP-LC retention time values is the METLIN SMRT retention time set (Domingo-Almenara et al. 2019).

The structures appear in SMILES notation.

A short description of the data set: gradient 5% acetonitrile 3 min, to 50% in 2 min, to 85% in 15 min, held 3 min, 100 µL/min. As to conditions: column: Zorbax Extend-C18 2.1 x 50 mm; eluents: water / acetonitrile, 0.1% formic acid. In short, it runs like this:
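Standards, all pure, were combined into mixtures of ~100 molecules and run at 100 μL/min on a Zorbax Extend-C18 column (2.1 × 50 mm, 1.8 μm) with water and acetonitrile, each containing 0.1% formic acid. A coupled quadrupole time-of-flight mass spectrometer operated in positive and negative ionization mode. Retention time values come from computationally picked adduct peaks, each inspected manually.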
`Cc1cc(C)n(-c2ccnc(N3CCC(C(=O)N4CCSCC4)CC3)n2)n1` registered an RP-LC retention time of 854 s.

`CC(C)CC(=O)Nc1ccc(OCc2cc(C(=O)NC3CC3)no2)cc1`: the RP-LC retention time stood at 747 s.

The compound `NC(=O)C1CCN(C(=O)c2cn(-c3ccc(Cl)cc3)nn2)CC1` had an RP-LC retention time of 660 s.

`CC(O)(CNC(=O)C(=O)Nc1cccc(N2CCCCC2=O)c1)c1ccccc1` (stereo not given) had an RP-LC retention time of 668 s.

On to `CCOc1ccccc1C(=O)n1nc(C)c(S(=O)(=O)N2CCCCC2)c1C`, for which the RP-LC retention time stood at 1160 s.

`COc1cc(C(=O)NC2CCN(c3cc(-c4ccc(Cl)cc4)[nH]n3)C2)cc(OC)c1OC` (stereo not given): the RP-LC retention time was 767 s.

On to `O=S(=O)(c1cc(-c2nnc(C3CC3)o2)co1)N1CCCC1`, for which the RP-LC retention time turned out to be 774 s.

As for `COc1ccc(S(=O)(=O)N2CCC(c3noc(C4CC4)n3)C2)cc1` (stereo not given), the RP-LC retention time stood at 847 s.

Turning to `O=C(NCc1ccc(Cl)cc1)C1CCN(c2cncnc2N2CCOCC2)CC1`, the RP-LC retention time is 647 s.

For `O=C(Nc1ccc2nnc(-c3ccc(C(=O)N4CCCCC4)cc3)n2c1)C1CCC1`, the RP-LC retention time came out at 562 s.

Turning to `COC(=O)c1c(NC(C)c2ccc(F)cc2)c2cccc(Cl)c2[nH]c1=O` (stereo not given), the RP-LC retention time is 858 s.

`CC(C)c1cc(C(=O)Nc2cc(F)cc(F)c2)nc2ccnn12` came in with an RP-LC retention time of 1180 s.

Compound `Cc1cccc(C)c1NC(=O)Cn1ncc2c(N3CCN(c4ccccn4)CC3)ncnc21` returned an RP-LC retention time of 606 s.

`Nc1cc(C2CCN(S(=O)(=O)c3cccc(Cl)c3)CC2)no1`: the RP-LC retention time was 792 s.

Take `Cc1nc(-c2csc(S(=O)(=O)N3CCC(C(=O)NC4CC4)CC3)c2)no1`: the RP-LC retention time was determined as 723 s.

Compound `N#Cc1cccc(C(=O)NC2CCN(c3cc(-c4cccs4)[nH]n3)C2)c1` (stereo not given) registered an RP-LC retention time of 701 s.

The compound `C[C@@H]1CN(C(=O)c2cccs2)C[C@H]1c1nc(-c2ccccc2)no1` showed an RP-LC retention time of 965 s.

In turn, `CCCC(=O)NCc1c(-c2ccccc2)nc2n1CCS2` showed an RP-LC retention time of 604 s.

`O=C1CC(c2cc(F)cc(F)c2)Cc2nc(N3CCN(c4ccc(F)cc4)CC3)ncc21` (stereo not given) came in with an RP-LC retention time of 719 s.

In the case of `Cc1ccc(NC(=O)Cn2nc(C(=O)N3CCCC3)c3ccccc32)cc1C`, the RP-LC retention time was determined as 828 s.

Compound `Cc1ccc(CNC(=O)C2CCCN(c3nc4ccsc4c(=O)n3Cc3ccc(C)cc3)C2)cc1` (stereo not given) came in with an RP-LC retention time of 1060 s.

As to `COCCN(Cc1ccco1)c1nc(-c2ccc(OC)cc2)nc2ccccc12`, the RP-LC retention time amounted to 792 s.

The compound `O=C(Nc1ccc(Cl)cc1)C1CCCN(S(=O)(=O)c2c[nH]c(C(=O)N3CCCCCC3)c2)C1` (stereo not given) yielded an RP-LC retention time of 959 s.

Take `CCC(C)NC(=O)NC1CCN(C2=NS(=O)(=O)C(c3ccc(Cl)cc3)=C2C)CC1` (stereo not given): the RP-LC retention time was determined as 883 s.

Take `Cc1cc(C)cc(Nc2c(C(=O)N3CCCC(C)C3)cnc3nc(C)ccc23)c1` (stereo not given): the RP-LC retention time amounted to 672 s.

As to `CC(C)C(=O)N1C[C@@H](F)C[C@H]1C(=O)N1CCc2ccccc2C1`, the RP-LC retention time is 683 s.

Consider `O=C(Nc1ccc2c(c1)C(=O)N1CCCCC1CCO2)Nc1ccccc1C(F)(F)F` (stereo not given), for which the RP-LC retention time worked out at 832 s.

On to `O=C(CCc1c(-c2ccc(F)cc2)nc2ccccn12)N1CCC2(CC1)OCCO2`, for which the RP-LC retention time turned out to be 615 s.

Turning to `CC(=O)N1CCN(c2nccc(-n3nc(C)cc3C)n2)CC1`, the RP-LC retention time was 716 s.

The compound `CCCCCn1c(=O)c2ccccc2n(Cc2nc(-c3ccc(OC)c(OC)c3)no2)c1=O` came in with an RP-LC retention time of 1120 s.

In turn, `COc1ccc(C(=O)c2cn(CC(=O)c3ccc(Cl)cc3)c3nc(C)ccc3c2=O)cc1` gave an RP-LC retention time of 1010 s.

Take `O=C(CCSc1ccccc1)NCC(c1ccco1)N1CCOCC1` (stereo not given): the RP-LC retention time was 574 s.

The compound `O=C(Cn1nc(Cc2cccnc2)c2ccccc2c1=O)N1CC=C(c2ccccc2)CC1` yielded an RP-LC retention time of 680 s.

`Cc1[nH]c(C(=O)Nc2ccc(F)c(Cl)c2)c(C)c1S(=O)(=O)N1CCCCC1`: the RP-LC retention time was found to be 1020 s.

On to `COC(=O)c1c(NCc2cccc(Br)c2)c2cc(F)ccc2[nH]c1=O`, for which the RP-LC retention time is 831 s.

In the case of `CCNC(=O)Nc1ccc(N2CCCCC2)nc1`, the RP-LC retention time was determined as 561 s.

`O=C(NCc1ccccn1)C(=O)c1cn(CC(=O)N2CCOCC2)c2ccccc12` showed an RP-LC retention time of 614 s.

For `COc1ccc(-c2csc(NC(=O)NC3CCCC3)n2)cc1`, the RP-LC retention time is 861 s.

In turn, `CSc1ccc(-c2nc3nc(C)cc(C)n3c2Nc2c(C)cccc2C)cc1` gave an RP-LC retention time of 808 s.

As to `CCOC(=O)c1noc2nc(C)nc(Nc3cc(C)cc(C)c3)c12`, the RP-LC retention time worked out at 1060 s.

Turning to `Cc1ccc(-c2nc(C3CC(=O)N(c4ccc(Cl)cc4)C3)no2)cc1C` (stereo not given), the RP-LC retention time worked out at 1200 s.

Compound `O=C(Cn1ccc2cc(S(=O)(=O)N3CCCCC3)ccc21)N1CCN(c2ccccn2)CC1` gave an RP-LC retention time of 660 s.

In turn, `CCc1cc(=O)n(CC(=O)NCCOC)c(N2CCOCC2)n1` displayed an RP-LC retention time of 577 s.

`CCN(CCN(C)C)c1ccc(C(=O)O)cc1NS(=O)(=O)c1cccc(C)c1` returned an RP-LC retention time of 620 s.

`COc1ccc(-c2ccnc3nc(C4CC4)nn23)cc1` displayed an RP-LC retention time of 805 s.

In the case of `O=C(Cc1ccc(F)cc1)N1CCN(CC(O)c2cccs2)CC1` (stereo not given), the RP-LC retention time came to 569 s.

For the compound `O=C(NC1CCN(c2nnc3ccc(Cl)cn23)CC1)c1cccnc1`, the RP-LC retention time stood at 567 s.

`CC(C)NC(=O)c1ccc2c(c1)ncn2CCNC(=O)Nc1ccc(Br)cc1F` returned an RP-LC retention time of 651 s.

`CCC(=O)N1CCCN(C2=NS(=O)(=O)C(c3ccc(CC)cc3)=C2C)CC1` gave an RP-LC retention time of 796 s.

`Cc1cc(S(=O)(=O)Nc2cccnc2)c(Cl)cc1Cl` had an RP-LC retention time of 714 s.

As for `CN1C(=O)C2CCCCN2c2ccc(C(=O)NCCCc3ccccc3)cc21` (stereo not given), the RP-LC retention time came to 939 s.

Regarding `COCC(=O)N1CCCc2ccc(NC(=O)c3cc(C)on3)cc21`, the RP-LC retention time was 680 s.

In turn, `Cc1ccc(C)c(NC(=O)C2CCN(S(C)(=O)=O)c3cc(Cl)ccc3O2)c1` (stereo not given) registered an RP-LC retention time of 935 s.

For the compound `CC1(C(=O)NCc2ccccc2)CN(S(C)(=O)=O)CC(=O)N1Cc1ccc(Cl)cc1` (stereo not given), the RP-LC retention time is 858 s.

Turning to `Cc1sc(NC(=O)c2ccccc2F)nc1-c1ccc2c(c1)NC(=O)C(C)O2` (stereo not given), the RP-LC retention time amounted to 899 s.

As to `CCCN1CCN(C(=O)CCc2c(C)c(C(=O)OCC)c(C)n2CC)CC1`, the RP-LC retention time was 645 s.

Compound `CC1CCc2[nH]nc(C(=O)NC3CCCC3)c2C1` (stereo not given) had an RP-LC retention time of 806 s.

On to `O=C(NCCCc1ccccc1)c1cccc2c1CCN2C(=O)C1CC1`, for which the RP-LC retention time stood at 902 s.

As for `COc1ccc(Cl)cc1-n1c(SCC(=O)N2CCC(C(N)=O)CC2)nc2ccccc2c1=O`, the RP-LC retention time amounted to 717 s.

The compound `O=C(NCc1cccs1)C1CCCN(S(=O)(=O)c2c[nH]c(C(=O)N3CCCCCC3)c2)C1` (stereo not given) yielded an RP-LC retention time of 812 s.

On to `CCNC(=O)NC1CCN(c2nc3ccccc3n(C)c2=O)CC1`, for which the RP-LC retention time came out at 676 s.

With `COc1ccc(C2CN(S(=O)(=O)c3ccc(C#N)cc3)CCN2C)cc1` (stereo not given), the RP-LC retention time was determined as 564 s.

On to `CCN(CC)C(=O)c1ccc2c(c1)N(CC(=O)NC1CCCCC1)C(=O)CS2`, for which the RP-LC retention time came out at 761 s.

`CCOC(=O)CC1(NC(=O)N2CCC(c3nc4ccncc4n3C)C2)CCCCC1` (stereo not given) showed an RP-LC retention time of 553 s.

Turning to `CCN1CCN(Cc2nc3cc(NC(=O)c4cccs4)ccc3n2C(C)C)CC1`, the RP-LC retention time was 586 s.

As to `CCOc1ccc(NC(=O)Nc2nccn(-c3cc(Cl)ccc3C)c2=O)cc1`, the RP-LC retention time was determined as 1060 s.

`CCN1C(=O)C(C)(C(=O)NCc2ccc(OC)cc2)Oc2cccnc21` (stereo not given) displayed an RP-LC retention time of 803 s.

Regarding `CCN1C(=O)NC(c2ccc(C(F)(F)F)cc2)C2=C1CN(CCC(=O)N1CCOCC1)C2=O` (stereo not given), the RP-LC retention time came to 638 s.

Turning to `Cc1ccsc1-c1nnc(CC(=O)N2CCN(c3ccccc3)CC2)o1`, the RP-LC retention time is 872 s.

In the case of `NC(CO)(CO)CCc1ccc(Sc2cccc(OCc3ccccc3)c2)cc1Cl`, the RP-LC retention time worked out at 837 s.

`COc1cc(C2C(C(=O)N3CCOCC3)=C(C)NC3=C2C(=O)CCC3)ccc1OC(C)=O` (stereo not given) yielded an RP-LC retention time of 622 s.

In the case of `O=C(NCCN1CCOCC1)c1nc(-c2ccnc(N3CCCCCC3)c2)no1`, the RP-LC retention time came to 564 s.

`CC1CCC2(CC1)NC(=O)N(CC(=O)Nc1ccc3c(c1)OCCO3)C2=O` (stereo not given) displayed an RP-LC retention time of 783 s.

Take `CCNC(=O)N(CCCOC)CC(=O)N1CCc2sccc2C1COc1ccc(Cl)c(C)c1` (stereo not given): the RP-LC retention time worked out at 965 s.

For `O=C(Nc1ccc2cn[nH]c2c1)C1(c2ccccc2)CCOCC1`, the RP-LC retention time came out at 676 s.

In turn, `Cc1ccc(-c2cc3n(n2)CCCN(C(=O)Cc2ccccc2F)C3)cc1` yielded an RP-LC retention time of 939 s.

The compound `COc1cccc(OC)c1C(=O)Nc1cc2c(cc1S(=O)(=O)c1ccc(F)cc1)n(C)c(=O)n2C` displayed an RP-LC retention time of 852 s.

`Cc1cnn(Cc2nc(-c3ccc(NC(=O)C(C)(C)C)cc3)oc2C)c1` yielded an RP-LC retention time of 863 s.

The compound `COCCN1CCCCc2cc(C(N)=O)sc21` yielded an RP-LC retention time of 708 s.

The compound `CN(C)CCC[C@@]1(c2ccc(F)cc2)OCc2cc(C#N)ccc21` displayed an RP-LC retention time of 724 s.
